Results published in patent US20100222439A1, “BEVERAGE CONTAINING A POLYMERIC POLYPHENOL” (CONOPCO, INC., D/B/A UNILEVER, priority 2009, published 2010).

Experiment: Theaflavins feeding model (optical density)
Type: physicochemical
Procedure: A 3 mg/mL aqueous solution of theaflavins was prepared at 80 degrees Celsius. 0.625 mg/mL aqueous solutions of whey protein isolate and iota carrageenan were prepared and all three solutions combined to yield a solution with 1.5 mg/mL theaflavins, 0.156 mg/mL whey protein isolate and 0.156 mg/mL iota carrageenan. The following feeding programme was used with the 3 mg/mL aqueous solution of theaflavins being either at ambient temperature (reference “Procedure B”) or at 80 degrees Celsius (reference “Procedure A”) when combined with the ambient temperature 0.625 mg/mL aqueous solutions of whey protein isolate and iota carrageenan:
TF+WPI/IC: 25 mL whey protein isolate solution and 25 mL iota carrageenan solution are premixed and added to 50 mL theaflavins solution. TF+IC: 25 mL iota carrageenan solution is added to 50 mL of theaflavins solution and 25 mL of deionised water added. TF+WPI: 25 mL whey protein isolate solution is added to 50 mL of theaflavins solution and 25 mL of deionised water added. TFWPI+IC: 25 mL whey protein isolate solution is added to 50 mL theaflavins solution, and then 25 mL iota carrageenan solution is added after 10 minutes. […]
All the samples were stored at 4 degrees Celsius for 24 hours in order to equilibrate the tea creaming process before measurement of turbidity at 600 nm with a Safire2™ microplate reader (Tecan Group Ltd.).

- Effect on solubility of theaflavin: decreases the solubility of theaflavin
Substance: Iota carrageenan
